Source: paper PMC6753678, “Fueling Open Innovation for Malaria Transmission-Blocking Drugs: Hundreds of Molecules Targeting Early Parasite Mosquito Stages” (Frontiers in Microbiology, 2019)
Read-outs that look alike come from different tables or passages of the source.

Columns and labels:
[1] = test system: HepG2 cells; details: ref Almela et al 2016, cited from earlier work; for HepG2 cytoxicity (Pf GCT ATP screen): HepG2 value reported with Pf GCT ATP screen
[2] = test system: P. falciparum late stage (stages IV-V) gametocytes; set-up: method as in Almela et al 2016; details: ref Almela et al 2016, read-out: Pf GCT ATP IC50, cited from earlier work
[3] = test system: P. falciparum late stage (stages IV-V) gametocytes; test: P. falciparum late stage gametocyte ATP depletion assay (Pf GC-ATP); details: 1: YES, 0: NO
[4] = test system: HepG2 cells; test: HepG2 cytotoxicity assay
How it was run: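 Percent inhibition derived from fluorescent viability readout, normalised to DMSO (negative) and 50 μM doxorubicin (positive). Compound incubation lasted 48 h at 37°C, 5% CO2, with 2,500 HepG2 cells/well in MEM plus 10% FBS and 1% NEAA.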

[5] = test system: P. berghei ookinete development; details: primary screen at 1 μM
[6] = HepG2 data listed with Pf GCT ATP screen
[7] = P. falciparum late stage gametocyte ATP assay
[8] = HepG2 cytotoxicity unified across screens, >25 set to 25.00
[9] = P. falciparum late stage gametocyte ATP assay, TCAMS screen
[10] = >10-fold selectivity over cytotoxicity
[11] = HepG2 cytotoxicity unified across screens, bounds (>) given as plain numbers
[12] = unified HepG2 value across the three screens
[13] = reported with the Pf GCT ATP screen

Compound	HepG2 cytoxicity [1, 6] [µM]	IC50 [2, 7] [nM]	Is compound selective in assay? Pf GC-ATP active? [3]	Unified cytotox [4, 8] [µM]	IC50 [2, 9] [nM]	Is compound selective in assay? Pf GC-ATP active? [3, 10]	also measured
CCc1nn2c(Nc3ccncc3)cc(C)nc2c1-c1ccccc1 [TCMDC-124917]	>25	1900	1 (1: YES)				
CN1CCC(N(Cc2ccc(-c3ccc(Cl)cc3)cc2)C(=O)Cn2c(CCc3cccc(F)c3F)cc(=O)c3ccccc32)CC1.O=C(O)C(O)C(O)C(=O)O [TCMDC-141357]				6.70	3430	0 (0: NO)	% inhibition, Replicate A [5]: 22.22%; % inhibition, Replicate B [5]: 55.97%
CCCCCOc1ccc(C(O)C(CCC(CN2CCCCCC2)C(O)c2ccc(OCCCCC)cc2)CN2CCCCCC2)cc1.Cl (centres unmarked) [TCMDC-124174]			0 (0: NO)				Unified cytotox [4, 11]: 6.80 µM; HepG2 cytoxicity (Pf GCT ATP screen) [1]: 6.8 µM; IC50 ([2]; TCAMS library screen): 1200 nM
CCCCOc1ccc(C(=O)C(CCC(CNC(C)(C)C)C(=O)c2ccc(OCCCC)cc2)CNC(C)(C)C)cc1.Cl (centres unmarked) [TCMDC-124120]			1 (1: YES)				Unified cytotox [4, 11]: 3.10 µM; HepG2 cytoxicity (Pf GCT ATP screen) [1]: 3.1 µM; IC50 ([2]; TCAMS library screen): 300 nM
Cc1cccnc1Nc1nc(-c2ccccn2)cs1 [TCMDC-125846]	3.02	100	1 (1: YES)				Unified cytotox [4, 12]: 3.02 µM
Cc1ccc(-n2c(C)nc3c(Nc4ccc(-c5ccncc5)cc4)ncnc32)c(C)c1 [TCMDC-136289]				25.00	530	1 (1: YES)	HepG2 cytoxicity [1, 13]: >25 µM
O=C(Nc1nc(-c2ccccn2)cc2ccccc12)c1cccc(Cl)c1 [TCMDC-123886]			1 (1: YES)				HepG2 cytoxicity (Pf GCT ATP screen) [1]: >25 µM; IC50 ([2]; TCAMS library screen): 500 nM
SC(=Nc1ccc2c(c1)OCCO2)NN=Cc1ccccn1 [TCMDC-132009]	3.28	830	0 (0: NO)				Unified cytotox [4, 12]: 3.28 µM
O=C(Nc1cccc(-c2cccc(-c3ccc(F)cc3)n2)c1)c1ccc([N+](=O)[O-])o1 [TCMDC-124807]	6.94	1530	0 (0: NO)				Unified cytotox [4, 12]: 6.94 µM
CC(C)CNCc1cccc(-c2cccc(CNCCCN3CCN(C)CC3)c2)c1.O=C(O)C(F)(F)F [TCMDC-140483]				25.00	1560	1 (1: YES)	HepG2 cytoxicity [1, 13]: >25 µM
COc1ccc2nc3cc(Cl)ccc3c(NCCCCCCNc3c4ccc(Cl)cc4nc4ccc(OC)cc34)c2c1.Cl.Cl.Cl.Cl [TCMDC-137503]				25.00	50	1 (1: YES)	HepG2 cytoxicity [1, 13]: >25 µM
COc1cccc(C(=O)NC(C=Cc2ccccc2)c2cc(Cl)c3cccnc3c2O)c1 (centres unmarked) [TCMDC-125550]	>25	590	1 (1: YES)				
COc1ccc(NC(=O)C2c3ccccc3C(=O)N(CC(C)C)C2c2cccs2)cc1OC (centres unmarked) [TCMDC-125289]	>25	430	1 (1: YES)				
Cc1nn(CC(C)C)c2sc(C(=O)N3CCN(S(=O)(=O)c4ccc(C#N)cc4)CC3)cc12 [TCMDC-125045]	>25	2090	1 (1: YES)				
COc1cccc(Nc2c(C(N)=O)cnc3ccc(-c4ccc([S+](C)[O-])cc4)cc23)c1.O=C(O)C(F)(F)F (centres unmarked) [TCMDC-135184]				25.00	1430	1 (1: YES)	HepG2 cytoxicity [1, 13]: >25 µM
O=[N+]([O-])c1ccc(C=NNc2nc(Nc3ccccc3)nc(Nc3ccccc3)n2)o1 [TCMDC-125802]	14.82	1310	1 (1: YES)				Unified cytotox [4, 12]: 14.82 µM

Compound	HepG2 cytoxicity [1, 6] [µM]	IC50 [2, 7] [nM]	Is compound selective in assay? Pf GC-ATP active? [3]	Unified cytotox [4, 8] [µM]	IC50 [2, 9] [nM]	Is compound selective in assay? Pf GC-ATP active? [3, 10]	also measured
Cc1cc(Nc2ccncc2)n2nc(C)c(-c3ccc(Cl)cc3)c2n1 [TCMDC-124478]			1 (1: YES)				HepG2 cytoxicity (Pf GCT ATP screen) [1]: >50 µM; IC50 ([2]; TCAMS library screen): 910 nM
COc1cc2nc(NCC3CCN(c4nc(N)c5cc(OC)c(OC)cc5n4)CC3)nc(N)c2cc1OC [TCMDC-138723]				25.00	1420	1 (1: YES)	HepG2 cytoxicity [1, 13]: >25 µM
Oc1c(C(Nc2nc3ccccc3s2)c2ccc(OC(F)F)cc2)ccc2cccnc12 (centres unmarked) [TCMDC-124379]			1 (1: YES)				Unified cytotox [4, 11]: 24.10 µM; HepG2 cytoxicity (Pf GCT ATP screen) [1]: 24.1 µM; IC50 ([2]; TCAMS library screen): 440 nM
Cc1ccc(C)c(NC(=O)CC2C(=O)N(c3ccccc3)C(=S)N2Cc2ccco2)c1 (centres unmarked) [TCMDC-124000]			1 (1: YES)				HepG2 cytoxicity (Pf GCT ATP screen) [1]: >10 µM; IC50 ([2]; TCAMS library screen): 1300 nM
CC(C)CCNC(=N)Nc1ccc(OCCCOc2ccc(NC(=N)NCCC(C)C)cc2)cc1 [TCMDC-137615]				25.00	290	1 (1: YES)	HepG2 cytoxicity [1, 13]: >25 µM
Cl.N=C(N)NN=Cc1c2ccccc2c(Cl)c2cc(Cl)ccc12 [TCMDC-137903]				7.50	2350	0 (0: NO)	% inhibition, Replicate A [5]: 53.67%; % inhibition, Replicate B [5]: 40.83%
Cc1cc(Nc2ccncc2)n2nc(C)c(-c3ccccc3Cl)c2n1 [TCMDC-124918]	>25	1940	1 (1: YES)				
CCN(CC)/C(=N\C(=N)NCCCCCCNC(=N)/N=C(\Nc1ccc(Cl)cc1)N(CC)CC)Nc1ccc(Cl)cc1 [TCMDC-131807]	>25	370	1 (1: YES)				
CCOc1c(CCNCCCCNCCc2ccc3ccccc3c2OCC)ccc2ccccc12.CS(=O)(=O)O [TCMDC-137759]					170	1 (1: YES)	HepG2 cytoxicity [1, 13]: <1.56 µM
CCN(CC)/C(=N/C(=N)Nc1ccc(Cl)cc1)NCCCCCCCCN/C(=N\C(=N)Nc1ccc(Cl)cc1)N(CC)CC [TCMDC-131812]	>25	1030	1 (1: YES)				
CCN(CC)/C(=N/C(=N)NCc1ccc(Cl)cc1)NCCCCCCN/C(=N\C(=N)NCc1ccc(Cl)cc1)N(CC)CC [TCMDC-131817]	>25	790	1 (1: YES)				
CS(=O)(=O)O.FC(F)(F)COc1c(CCNCCCCNCCc2ccc3ccccc3c2OCC(F)(F)F)ccc2ccccc12 [TCMDC-137169]				2.80	100	1 (1: YES)	
CCc1cc(COc2ccc(CNCCC(C)C)cc2I)c(OCc2ccccc2)c(COc2ccc(CNCCC(C)C)cc2I)c1.Cl [TCMDC-137255]				5.80	1020	0 (0: NO)	
COc1ccc(CNCCc2cccs2)cc1-c1cccc(S(=O)(=O)NCCN2CCCC2)c1.O=C(O)C(F)(F)F [TCMDC-132479]				11.40	1680	0 (0: NO)	
C[C@H]1CN(Cc2cccc(-c3cc(CNC(=O)c4cccc(CC5CCN(C)CC5)c4)ccc3F)c2)CCN1C [TCMDC-136349]				6.97	850	0 (0: NO)	
